# Results taken from patent US11414416B1, “Compounds and uses thereof” (Foghorn Therapeutics Inc., priority 2019, dated 2022).
# Experiments:
# Format in all cases: cell-based
# [1] = tested on: synovial sarcoma cell lines (SYO1, Yamato, HS-SY-II, and ASKA); assay: Growth of synovial sarcoma cell lines (confluency, crystal violet, colonies; Example 3); settings: FIGS. 5-7, 1 μM in crystal violet assay
# Method: (§1) Cells were treated with DMSO or the BRD9 degrader, Compound 1, at indicated concentrations, and proliferation was monitored from day 7 to day 14 by measuring confluency over time using an IncuCyte live cell analysis system (FIG. 5). Growth medium and compounds were refreshed every 3-4 days.
# (§2) Cells were seeded into 12-well plates and treated with DMSO, 1 μM BRD9 inhibitor, Compound 2 (also known as BI-7273, see Martin et al, J Med Chem. 59(10):4462-4475 (2016); see structure of Compound 2 below), or 1 μM BRD9 degrader, Compound 1.
# (§3) The number of cells was optimized for each cell line. Growth medium and compounds were refreshed every 3-5 days. SYO1, Yamato, A549, 293T and HS-SY-II cells were fixed and stained at day 11. ASKA cells were fixed and stained at day 23. Staining was done by incubation with crystal violet solution (0.5 g Crystal Violet, 27 ml 37% Formaldehyde, 100 mL 10×PBS, 10 mL Methanol, 863 dH20 to 1 L) for 30 min followed by 3× washes with water and drying the plates for at least 24 h at room temperature. Subsequently plates were scanned on an Odyssey CLx Imaging system (FIG. 6).
# (§4) Cells were seeded into 96-well ultra low cluster plate (Costar, #7007) in 200 μL complete media and treated at day 2 with DMSO, Staurosporin, or BRD9 degarder, Compound 1, at indicated doses (FIG. 7). Media and compounds were changed every 5 d and cell colonies were imaged at day 14.
# [2] = tested on: non-synovial control cancer cell lines (293T, A549, G401); assay: Growth of non-synovial control cancer cell lines (Example 3); settings: FIGS. 5-7
# Method: as §1, §2, §3, §4
# [3] = tested on: synovial sarcoma cell lines (SYO1, HS-SY-II, and ASKA); assay: Growth of synovial sarcoma cell lines, crystal violet day 14 (Example 4)
# Method: (§5) Procedure: Cells were seeded into 6-well or 12-well plates and were treated daily with a BRD9 degrader (Compound 1), a bromo-domain BRD9 binder (Compound 2), E3 ligase binder (lenalidomide), DMSO, or staurosporin (positive control for cell killing), at indicated concentrations. The number of cells was optimized for each cell line. Growth media was refreshed every 5 days. By day 14, medium was removed, cells were washed with PBS, and stained using 500 μL of 0.005% (w/v) crystal violet solution in 25% (v/v) methanol for at least 1 hour at room temperature. Subsequently plates were scanned on an Odyssey CLx Imaging system.
# [4] = tested on: non-synovial control cancer cell lines (RD, HCT116, and Calu6); assay: Growth of non-synovial control cancer cell lines, crystal violet day 14 (Example 4); settings: treated daily, day 14, FIG. 9
# Method: as §5
# SYO1 cells [5] = assay: Cell cycle analysis, Click-iT Plus EdU Flow Cytometry Assay; settings: SYO1, 200 nM or 1 μM, 8 or 13 days, compared to DMSO and lenalidomide
# Method: (§6) Procedure: SYO1 cells were treated for 8 or 13 days with DMSO, a BRD9 degrader (Compound 1) at 200 nM or 1 μM, or an E3 ligase binder (lenalidomide) at 200 nM. Compounds were refreshed every 5 days. Cell cycle analysis was performed using the Click-iT™ Plus EdU Flow Cytometry Assay (Invitrogen). The apoptosis assay was performed using the Annexin V-FITC Apoptosis Detection Kit (Sigma A9210). Assays were performed according to the manufacturer's protocol.
# SYO1 cells [6] = assay: Apoptosis assay, Annexin V-FITC Apoptosis Detection Kit; settings: SYO1, 200 nM or 1 μM, 8 days, compared to DMSO controls
# Method: as §6
compound,measurement,setting,value
COc1cc(-c2cn(C)c(=O)c3cnccc23)cc(OC)c1CN(C)CC(=O)NCCOCCOCCNc1cccc2c1C(=O)N(C1CCC(=O)NC1=O)C2=O (stereo not shown) [Compound 1],inhibition of growth of synovial sarcoma cell lines,[1],inhibition of the growth of the cells
same,inhibition of growth of non-synovial control cancer cell lines,[2],does not result in inhibition of the growth
same,inhibition of growth of synovial sarcoma cell lines,"[3]; SYO1, HS-SY-II, ASKA, treated daily, day 14, FIG. 8",inhibition of the growth of the cells
same,overall comparison of growth inhibition in synovial cell lines,[3]; compared with Compound 2 and lenalidomide,most significant growth inhibition
same,inhibition of growth of non-synovial control cancer cell lines,[4],did not result in inhibition of the growth
same,numbers of cells in the S-phase of the cell cycle,SYO1 cells [5],reduced numbers of cells in the S-phase
same,numbers of early- and late-apoptotic cells,SYO1 cells [6],increased numbers of early- and late-apoptotic cells
